Active and inactive are the calls of the source. The calls are words filed in the database; no cut-off is given here.
Assays:
[1] = molecular target: T1, Bromodomain-containing protein 4 (Homo sapiens, UniProt O60885); assay: Binding affinity to BRD4 BD1 (unknown origin) expressed in Escherichia coli BL21 (DE3) at 1:1 protein:compound ratio by MST assay
[2] = molecular target: T1, Bromodomain-containing protein 4; assay: Binding affinity to BRD4 BD2 (unknown origin) expressed in Escherichia coli BL21 (DE3) at 1:1 protein:compound ratio by MST assay
[3] = Selectivity ratio of Kd for binding affinity to BRD4 BD2 (unknown origin) by MST assay to Kd for binding affinity to BRD4 BD1 (unknown origin) by MST assay
Microglia = assay: Antiinflammatory activity against LPS induced neonatal rat cerebral cortex microglia by immunofluorescence assay; assay type: functional, cell-based
Mus musculus [4] = assay: (§1) Anti-inflammatory activity in complete Freund's adjuvant/MOG (35 to 55 residues)/pertussis toxin-induced experimental autoimmune encephalomyelitis C57BL/6 mouse model assessed as reduction in clinical scores at 30 mg/kg, ip bid administered 6 days post immunization and measured every 3 days for 28 days post immunization; assay type: functional, organism-based; settings: time 22.0 day
Mus musculus [5] = assay: as §1, with “change” for “reduction”, “cumulative” for “clinical”; assay type: functional, organism-based; settings: time 22.0 day
Mus musculus [6] = assay: as §1, with “TNF-alpha level” for “clinical scores”; assay type: functional, organism-based; settings: time 22.0 day
Mus musculus [7] = assay: as §1, with “IL-6 level” for “clinical scores”; assay type: functional, organism-based; settings: time 22.0 day
Mus musculus [8] = assay: (§2) Anti-inflammatory activity in complete Freund's adjuvant/MOG (35 to 55 residues)/pertussis toxin-induced experimental autoimmune encephalomyelitis C57BL/6 mouse model assessed as appearance of normal myelin structure at 30 mg/kg, ip bid administered 6 days post immunization and measured every 3 days for 28 days post immunization by Luxol fast blue staining based bright field fluorescence microscopic analysis; assay type: functional, organism-based; settings: time 22.0 day
Mus musculus [9] = assay: as §2, with “as” for “as appearance of normal”, “density” for “structure”, “60” for “30”; assay type: functional, organism-based; settings: time 22.0 day

Q: What does the source list for Cc1nn(C)c(C)c1-c1cc2c(c(-c3ccnc4nc[nH]c34)c1)OCC2?
A: Kd [1]: 180 nM; Kd [2]: 3100 nM; Selectivity ratio [3]: 17

Q: What does the source list for Cc1nn(C)c(C)c1-c1cncc(-c2ccnc3nc[nH]c23)c1?
A: Kd [1]: 620 nM; Kd [2]: 30000 nM; Selectivity ratio [3]: 48

Q: Which Kd [1] does the source give for Cc1nn(C)cc1-c1cncc(-c2ccnc3nc[nH]c23)c1 here?
A: 660 nM

Q: What about the Kd [2] of the same molecule?
A: 28000 nM

Q: And the Selectivity ratio [3]?
A: 42

Q: For CCn1nc(C)c(-c2cncc(-c3ccnc4nc[nH]c34)c2)c1C, which Kd [1] is on record?
A: 480 nM

Q: And the Kd [2]?
A: 16000 nM

Q: What about the Selectivity ratio [3] of the same molecule?
A: 34

Q: With COC(=O)/C=C/C(=O)OC as the molecule, how does the Activity (Microglia) read?
A: Active

Q: What about the Activity (Mus musculus [4]) of the same molecule?
A: Active

Q: And the Activity (Mus musculus [5])?
A: Active

Q: What about the Activity (Mus musculus [6]) of the same molecule?
A: Active

Q: What about the Activity (Mus musculus [7]) of the same molecule?
A: Active

Q: And the Activity (Mus musculus [8])?
A: Active

Q: And the Activity (Mus musculus [9])?
A: Active

Q: Which Kd [1] does the source give for Cc1nn(CC2CCC2)c(C)c1-c1cncc(-c2ccnc3nc[nH]c23)c1 here?
A: 250 nM

Q: What about the Kd [2] of the same molecule?
A: 13000 nM

Q: What about the Selectivity ratio [3] of the same molecule?
A: 51
